According to patent publication US20250057832A1, “USE OF A CLASS OF 1,4-DIHYDRO-NAPHTHYRIDINE DERIVATIVES IN TREATMENT OF TUMORS” (NEURODAWN PHARMACEUTICAL CO., LTD., priority 2021, published 2025):

How the values were obtained:
CT26.WT [1] = experiment: Cell viability assay (Example 2); format: cell-based; settings: Mus musculus, 48 hours
Method: (§1) U87MG, T98G, U251, SK-N-SH, A-172 and HepG2 cells were adherently cultured in MEM+10% FBS+1% P/S medium and passaged at 1:3; CT26.WT cells were adherently cultured in RPMI-1640+10% FBS+1% P/S medium and passaged at 1:3; CHO-K1 was cultured adherently in Ham's F-12K+10% FBS+[…] medium and passaged at 1:3.
(§2) The above various cells were resuscitated and stably passaged twice. When the cell density reached above 85%, the cells were digested with 0.05% trypsin-EDTA for three minutes, resuspended, plated in a 96-well plate at the corresponding density, and cultured for 24 hours. The cells were treated with drugs at final concentrations of the culture system of 0.41 μM, 1.23 μM, 3.7 μM, 11.1 μM, 33.3 μM, and 100 μM. After 48 hours of drug treatment, cell viability was determined using CellCounting-Lite™ 2.0 kit. The plate was added with reagents at 100 µL/well according to the CellCounting-Lite™ 2.0 kit instructions, and shaken for 10 minutes. The luminescence value (LUM) was read on a multi-function plate reader, and the relative viability of the cells was calculated.
(§3) Relative viability of tumor cells V (%)=(LUM-LUMbackground)/(LUMnormal control−LUMbackground)×100%. LUMbackground was the background reading of the complete culture medium well added with the detection reagent. The half inhibitory concentration (IC50) was calculated using GraphPad Prism 8.0.1 statistical software.

SK-N-SH [2] = experiment: Cell viability assay (Example 2); format: cell-based; settings: Homo sapiens, 48 hours
Method: as §1, §2, §3

T98G [3] = experiment: Cell viability assay (Example 2); format: cell-based; settings: Homo sapiens, 48 hours
Method: as §1, §2, §3

U87MG [4] = experiment: Cell viability assay (Example 2); format: cell-based; settings: Homo sapiens, U-87 MG, 48 hours
Method: as §1, §2, §3

U251 [5] = experiment: Cell viability assay (Example 2); format: cell-based; settings: Homo sapiens, U-251; U251, 48 hours
Method: as §1, §2, §3

HepG2 [6] = experiment: Cell viability assay (Example 2); format: cell-based; settings: Homo sapiens; HepG2, 48 hours
Method: as §1, §2, §3

A172 [7] = experiment: Cell viability assay (Example 2); format: cell-based; settings: Homo sapiens, A 172; A172, 48 hours
Method: as §1, §2, §3

CT26.WT [8] = experiment: Vacuolation phenotype by S2 (Example 2); format: cell-based, mouse; settings: 30 μM, 6 hours
Method: as §1
(§4) The cells used above were resuscitated and passaged twice stably. When the cell density reached above 85%, the cells were digested with 0.05% trypsin-EDTA for 3 minutes, resuspended with the culture medium, and plated into a 6-well plate at a certain density, with each well system being 2 mL. The cells were cultured for 24 hours, added with 2 μL of the above-prepared S2 solution (final DMSO concentration 0.1%) to each well according to the grouping, such that the S2 concentration in the cell culture system reached 30 μM.
(§5) After 6 hours of drug treatment, the plate was observed under a microscope with a 20× objective lens, and five fields of view were randomly selected for each well to take photos and record. […]

T98G cells = experiment: Vacuolation induction in T98G cells (Example 1); format: cell-based, human
Method: T98G cells were stably passaged twice. When the cell density reached more than 85%, the cells were digested with 0.05% trypsin-EDTA for 3 minutes, resuspended with the culture medium, and plated in a 12-well plate at a certain density, with each well system being 1 mL. The cells were cultured for 24 hours, and added with the compound solution prepared above to each well according to the grouping, so that the concentrations of the compounds in the culture system were respectively 5 μM, 10 μM, 20 μM, 40 μM, and 60 μM. An equal volume of DMSO was added as a control well.
After 6 hours of drug treatment, the plates were observed under a microscope with a 20× objective lens, and five fields of view were randomly selected for each well to take photos and record. If in the observed field of view, bright vacuoles with clear border appeared in the cell, and at least one of the following conditions was met: 1) a cell contained at least 1 vacuole with a diameter greater than 3 μm; 2) a cell contained 3 or more vacuoles with a diameter within the range of 0.5-3 μm, the cell was considered to be methuosis-positive cells.
Among them, CELL positive: the number of methuosis-positive cells; CELL normal: the number of cells with normal morphology

SK-N-SH [9] = experiment: Vacuolation phenotype by S2 (Example 2); format: cell-based, human; settings: 30 μM, 6 hours
Method: as §1, §4
(§6) After 6 hours of drug treatment, the plate was observed under a microscope with a 20× objective lens, and five fields of view were randomly selected for each well to take photos and record. If bright vacuoles with clear border appeared in the cell in the observed field of view, and at least one of the following conditions was met: 1) a cell contained at least one vacuole with a diameter greater than […]; 2) a cell contained 3 or more vacuoles with a diameter within the range of […], the cell was considered as a methuosis-positive cell (Journal of Medicinal Chemistry 2018 61 (12), 5424-5434).
(§7) CELLpositive: the number of methuosis-positive cells; CELLnormal: the number of cells with normal morphology

T98G [10] = experiment: Vacuolation phenotype by S2 (Example 2); format: cell-based, human; settings: 30 μM, 6 hours
Method: as §1, §4, §6, §7

U87MG [11] = experiment: Vacuolation phenotype by S2 (Example 2); format: cell-based, human; settings: 30 μM, 6 hours
Method: as §1, §4, §6, §7

U251 [12] = experiment: Vacuolation phenotype by S2 (Example 2); format: cell-based, human; settings: U251, 30 μM, 6 hours
Method: as §1, §4, §6, §7

HepG2 [13] = experiment: Vacuolation phenotype by S2 (Example 2); format: cell-based, human; settings: HepG2, 30 μM, 6 hours
Method: as §1, §4, §6, §7

A172 [14] = experiment: Vacuolation phenotype by S2 (Example 2); format: cell-based, human; settings: A172, 30 μM, 6 hours
Method: as §1, §4, §6, §7

CHO-K1 [15] = experiment: Cell viability assay (Example 2); format: cell-based, hamster; settings: non-tumor cell line CHO-K1, 48 hours
Method: as §1, §2, §3

CHO-K1 [16] = experiment: Vacuolation phenotype by S2 (Example 2); format: cell-based, hamster; settings: non-tumor cell line CHO-K1, 30 μM, 6 hours
Method: as §1, §4, §5

Which results are given for `CCOC(=O)C1=C(C)Nc2nc3c(c(N)c2C1c1ccccc1Cl)CC(C)(C)CC3` (stereo not shown) [Compound S2]?
IC50 (CT26.WT [1]): 7.1 µM; IC50 (SK-N-SH [2]): 11.4 µM; IC50 (T98G [3]): 9.4 µM; IC50 (U87MG [4]): 11.7 µM; IC50 (U251 [5]): 14.3 µM; IC50 (HepG2 [6]): 10.1 µM; IC50 (A172 [7]): 4.7 µM; Induction of vacuolation (CT26.WT [8]): can also induce vacuolation; Rank of vacuolation-inducing activity among the derivatives (T98G cells): strongest vacuolation-inducing activity; Induction of vacuolation in T98 cells (T98G cells; FIG. 1 and Table 1): can induce vacuolation; Induction of vacuolation (SK-N-SH [9]): can induce vacuolation; Induction of vacuolation (T98G [10]): can induce vacuolation; Induction of vacuolation (U87MG [11]): can induce vacuolation; Induction of vacuolation (U251 [12]): can induce vacuolation; Induction of vacuolation (HepG2 [13]): can also induce vacuolation; Induction of vacuolation (A172 [14]): can induce vacuolation; IC50 (CHO-K1 [15]; CHO-K1, 48 h): > 100 µM; IC50 (CHO-K1 [15]): ~100 µM; Induction of vacuolation (CHO-K1 [16]): could not induce vacuolation
